The supplement of paper PMC10307832

compound: N#CC1(c2ccc(NC(=O)c3cccnc3NCc3ccncc3)cc2)CCCC1 [Apatinib] + Cc1nc(NC(=O)N2CCC[C@H]2C(N)=O)sc1-c1ccnc(C(C)(C)C(F)(F)F)c1 [Alpelisib] (partner 2 µM); assay: relative viability (nuclei count vs DMSO), 5 days (fraction); higher = more cells survive; conditions: first compound 0.08 µM
Summary of the method: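 A single step with final 0.05% Triton X-100, 1% formaldehyde and 1 ug/ml Hoechst fixed the cells and stained nuclei 5 days after treatment. Lung cancer cell lines in 1536-well plates had been treated by pin tool the day after seeding with one drug alone or a fixed anchor-drug dose plus five library-drug doses (not always all listed) in √10 steps, and nuclei were counted on 4× images. Relative viability is the ratio of nuclei in treated wells to nuclei in vehicle wells, taken as the median of duplicate plates.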

Q: Which relative viability does the source give for LK-2 here?
A: 1.33

Q: For LOU-NH91, which relative viability is on record?
A: 0.762

Q: LU99A was tested. Which relative viability did it give?
A: 0.565

Q: LXF-289 was tested. Which relative viability did it give?
A: 1.13

Q: How did the relative viability turn out when NCI-H23 was run?
A: 0.665

Q: Which relative viability does the source give for NCI-H322M here?
A: 0.782

Q: With NCI-H358 as the cell line, how does the relative viability read?
A: 0.87

Q: For NCI-H441, which relative viability is on record?
A: 0.872

Q: NCI-H596 was tested. Which relative viability did it give?
A: 0.535

Q: How did the relative viability turn out when NCI-H647 was run?
A: 1.39

Q: With NCI-H650 as the cell line, how does the relative viability read?
A: 1.23

Q: How did the relative viability turn out when NCI-H727 was run?
A: 0.64

Q: With NCI-H838 as the cell line, how does the relative viability read?
A: 1.06

Q: How did the relative viability turn out when NCI-H1355 was run?
A: 0.884

Q: With NCI-H1395 as the cell line, how does the relative viability read?
A: 1.23

Q: With NCI-H1437 as the cell line, how does the relative viability read?
A: 1.03

Q: NCI-H1651 was tested. Which relative viability did it give?
A: 1.03

Q: With NCI-H1666 as the cell line, how does the relative viability read?
A: 0.943

Q: NCI-H1734 was tested. Which relative viability did it give?
A: 0.739

Q: Which relative viability does the source give for NCI-H1755 here?
A: 0.933

Q: Which relative viability does the source give for NCI-H1793 here?
A: 0.576

Q: How did the relative viability turn out when NCI-H1915 was run?
A: 1.08

Q: Which relative viability does the source give for NCI-H1944 here?
A: 0.868

Q: For NCI-H1975, which relative viability is on record?
A: 0.662

Q: Which relative viability does the source give for NCI-H1993 here?
A: 0.779

same assay, conditions: first compound 0.253 µM

Q: For LCLC-97TM1, which relative viability is on record?
A: 0.21

Q: Which relative viability does the source give for LCLC-103H here?
A: 0.87

Q: LK-2 was tested. Which relative viability did it give?
A: 1.29

Q: With LOU-NH91 as the cell line, how does the relative viability read?
A: 0.699

Q: How did the relative viability turn out when LU99A was run?
A: 0.618

Q: Which relative viability does the source give for LXF-289 here?
A: 1.06

Q: Which relative viability does the source give for NCI-H23 here?
A: 0.911

Q: How did the relative viability turn out when NCI-H322M was run?
A: 0.744

Q: NCI-H358 was tested. Which relative viability did it give?
A: 0.914

Q: Which relative viability does the source give for NCI-H441 here?
A: 0.82

Q: Which relative viability does the source give for NCI-H596 here?
A: 0.528

Q: For NCI-H647, which relative viability is on record?
A: 1.21

Q: For NCI-H650, which relative viability is on record?
A: 1.25

Q: With NCI-H727 as the cell line, how does the relative viability read?
A: 0.625

Q: For NCI-H838, which relative viability is on record?
A: 1.03

Q: Which relative viability does the source give for NCI-H1355 here?
A: 0.823

Q: How did the relative viability turn out when NCI-H1395 was run?
A: 1.16

Q: For NCI-H1437, which relative viability is on record?
A: 1.11

Q: NCI-H1651 was tested. Which relative viability did it give?
A: 1.11

Q: NCI-H1666 was tested. Which relative viability did it give?
A: 1.01

Q: For NCI-H1734, which relative viability is on record?
A: 0.774

Q: How did the relative viability turn out when NCI-H1755 was run?
A: 0.946

Q: With NCI-H1793 as the cell line, how does the relative viability read?
A: 0.727

Q: How did the relative viability turn out when NCI-H1915 was run?
A: 1.09

Q: With NCI-H1944 as the cell line, how does the relative viability read?
A: 0.905

Q: How did the relative viability turn out when NCI-H1975 was run?
A: 0.691

Q: Which relative viability does the source give for NCI-H1993 here?
A: 0.675

same assay, conditions: first compound 0.8 µM

Q: For LCLC-97TM1, which relative viability is on record?
A: 0.256

Q: LCLC-103H was tested. Which relative viability did it give?
A: 1.02

Q: With LK-2 as the cell line, how does the relative viability read?
A: 1.04

Q: LOU-NH91 was tested. Which relative viability did it give?
A: 0.586

Q: For LU99A, which relative viability is on record?
A: 0.457

Q: How did the relative viability turn out when LXF-289 was run?
A: 1.03

Q: Which relative viability does the source give for NCI-H23 here?
A: 0.595

Q: NCI-H322M was tested. Which relative viability did it give?
A: 0.766

Q: NCI-H358 was tested. Which relative viability did it give?
A: 0.831

Q: For NCI-H441, which relative viability is on record?
A: 0.752

Q: Which relative viability does the source give for NCI-H596 here?
A: 0.579

Q: With NCI-H647 as the cell line, how does the relative viability read?
A: 1.1

Q: How did the relative viability turn out when NCI-H650 was run?
A: 1.04

Q: Which relative viability does the source give for NCI-H727 here?
A: 0.53

Q: NCI-H838 was tested. Which relative viability did it give?
A: 0.935

Q: For NCI-H1355, which relative viability is on record?
A: 0.816

Q: How did the relative viability turn out when NCI-H1395 was run?
A: 1.06

Q: Which relative viability does the source give for NCI-H1437 here?
A: 0.911

Q: With NCI-H1651 as the cell line, how does the relative viability read?
A: 0.786

Q: NCI-H1666 was tested. Which relative viability did it give?
A: 0.936

Q: For NCI-H1734, which relative viability is on record?
A: 0.701

Q: For NCI-H1755, which relative viability is on record?
A: 0.909

Q: For NCI-H1793, which relative viability is on record?
A: 0.471

Q: NCI-H1915 was tested. Which relative viability did it give?
A: 1.04

Q: NCI-H1944 was tested. Which relative viability did it give?
A: 0.74

Q: With NCI-H1975 as the cell line, how does the relative viability read?
A: 0.508

Q: With NCI-H1993 as the cell line, how does the relative viability read?
A: 0.703

same assay, conditions: first compound 2.53 µM

Q: How did the relative viability turn out when LCLC-97TM1 was run?
A: 0.206

Q: How did the relative viability turn out when LCLC-103H was run?
A: 0.918

Q: LK-2 was tested. Which relative viability did it give?
A: 1.01

Q: For LOU-NH91, which relative viability is on record?
A: 0.616

Q: Which relative viability does the source give for LU99A here?
A: 0.49

Q: Which relative viability does the source give for LXF-289 here?
A: 0.998

Q: NCI-H23 was tested. Which relative viability did it give?
A: 0.627

Q: For NCI-H322M, which relative viability is on record?
A: 0.89

Q: For NCI-H358, which relative viability is on record?
A: 0.882

Q: How did the relative viability turn out when NCI-H441 was run?
A: 0.726

Q: How did the relative viability turn out when NCI-H596 was run?
A: 0.402

Q: For NCI-H647, which relative viability is on record?
A: 0.799

Q: For NCI-H650, which relative viability is on record?
A: 1.03

Q: NCI-H727 was tested. Which relative viability did it give?
A: 0.512

Q: With NCI-H838 as the cell line, how does the relative viability read?
A: 0.958

Q: Which relative viability does the source give for NCI-H1355 here?
A: 0.804

Q: For NCI-H1395, which relative viability is on record?
A: 1.18

Q: With NCI-H1437 as the cell line, how does the relative viability read?
A: 0.912

Q: For NCI-H1651, which relative viability is on record?
A: 0.851

Q: Which relative viability does the source give for NCI-H1666 here?
A: 0.979

Q: How did the relative viability turn out when NCI-H1734 was run?
A: 0.591

Q: NCI-H1755 was tested. Which relative viability did it give?
A: 0.899

Q: For NCI-H1793, which relative viability is on record?
A: 0.481

Q: NCI-H1915 was tested. Which relative viability did it give?
A: 0.916

Q: For NCI-H1944, which relative viability is on record?
A: 0.798

Q: Which relative viability does the source give for NCI-H1975 here?
A: 0.562

Q: How did the relative viability turn out when NCI-H1993 was run?
A: 0.656

same assay, conditions: first compound 8 µM

Q: How did the relative viability turn out when LCLC-97TM1 was run?
A: 0.154

Q: For LCLC-103H, which relative viability is on record?
A: 0.911

Q: For LK-2, which relative viability is on record?
A: 0.919

Q: Which relative viability does the source give for LOU-NH91 here?
A: 0.568

Q: LU99A was tested. Which relative viability did it give?
A: 0.461

Q: How did the relative viability turn out when LXF-289 was run?
A: 0.964

Q: Which relative viability does the source give for NCI-H23 here?
A: 0.558

Q: For NCI-H322M, which relative viability is on record?
A: 0.782

Q: NCI-H358 was tested. Which relative viability did it give?
A: 0.781

Q: How did the relative viability turn out when NCI-H441 was run?
A: 0.421

Q: How did the relative viability turn out when NCI-H596 was run?
A: 0.222

Q: Which relative viability does the source give for NCI-H647 here?
A: 0.706

Q: NCI-H650 was tested. Which relative viability did it give?
A: 0.987

Q: Which relative viability does the source give for NCI-H727 here?
A: 0.506

Q: How did the relative viability turn out when NCI-H838 was run?
A: 0.942

Q: How did the relative viability turn out when NCI-H1355 was run?
A: 0.67

Q: Which relative viability does the source give for NCI-H1395 here?
A: 0.931

Q: How did the relative viability turn out when NCI-H1437 was run?
A: 0.644

Q: With NCI-H1651 as the cell line, how does the relative viability read?
A: 0.83

Q: NCI-H1666 was tested. Which relative viability did it give?
A: 0.943

Q: With NCI-H1734 as the cell line, how does the relative viability read?
A: 0.595

Q: For NCI-H1755, which relative viability is on record?
A: 0.845

Q: With NCI-H1793 as the cell line, how does the relative viability read?
A: 0.593

Q: Which relative viability does the source give for NCI-H1915 here?
A: 0.81

Q: For NCI-H1944, which relative viability is on record?
A: 0.866

Q: How did the relative viability turn out when NCI-H1975 was run?
A: 0.576

Q: NCI-H1993 was tested. Which relative viability did it give?
A: 0.654
